Reference: BindingDB's records for patent US20250243186 (Hansoh Bio, 2025)

Biological target: T1, Complement factor B [470-764] (UniProt P00751)
T1 construct: 470-764
Assay: Factor B Binding Assay by TR-FRET
Procedure: Table 1: Factor B binding affinity of each compound tested was determined using a time-resolved fluorescence resonance energy transfer (TR-FRET) technology. 10 nM recombinant his-tagged Factor B catalytic domain, varying concentrations of inhibitors, 4 nM LANCE Eu-W1024 Anti-6×His Antibody and 100 nM TR-FRET_tool2 tracer was incubated in 1× Kinase Buffer A for 1 h. Measurement was performed in a reaction volume of 15 μL by adding 5 μL of the test compound, 5 μL of Factor B/antibody mixture and 5 μL of tracer into white opaque 384-well assay plates. The TR-FRET signal was read on a plate reader with an excitation wavelength of 340 nm and detection wavelengths of 615 and 665 nm.

T1 sequence (P00751 470-764): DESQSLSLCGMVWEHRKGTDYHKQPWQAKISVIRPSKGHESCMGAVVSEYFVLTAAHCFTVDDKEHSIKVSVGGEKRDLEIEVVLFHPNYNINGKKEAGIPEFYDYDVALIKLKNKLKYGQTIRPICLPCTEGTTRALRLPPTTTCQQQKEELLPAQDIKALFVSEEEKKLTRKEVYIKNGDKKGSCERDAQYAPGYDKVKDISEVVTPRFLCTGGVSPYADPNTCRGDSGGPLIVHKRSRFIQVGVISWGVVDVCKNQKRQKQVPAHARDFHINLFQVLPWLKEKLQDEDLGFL

IC50: 45 nM
Structure (SMILES): COc1cc(C)c2[nH]ccc2c1CN1CC2CCC2C1c1ccc(C(=O)O)cc1 (stereo unspecified) [US20250243186, Example 22]
